Experimental data reported in patent publication US5332427A, “Wood preservatives” (priority 1991, dated 1994).

Experiments:
[1] = Discoloration (coloration) of oil formulation-coated filter paper under irradiation with light (Test Example 1); format: physicochemical; parameters: key: -: No discoloration (coloration); +: Slight discoloration (coloration); ++: Prominent discoloration (coloration); settings: 1% oil formulation, 100 ml per m^2 of filter paper, light of 6000-7000 lux for 5 minutes
Protocol: A 1% oil formulation of each of the test compounds shown in Table 2 was prepared according to Formulation Example 1. The oil formulation was coated on a filter paper having a diameter of 5.5 cm in an amount of 100 ml of the oil formulation per m^2 of the filter paper and the filter paper was air-dried. The filter paper thus prepared was subjected to irradiation with light of 6000-7000 lux for 5 minutes and then, taken out, after which the degree of discoloration (coloration) was observed. The degree of discoloration (coloration) was determined based on the following standard.
No discoloration (coloration): -
Slight discoloration (coloration): +
Prominent discoloration (coloration): ++

[2] = tested on: Coriolus versicolor; assay: Wood weight reduction after weather resistance operation, test method of Japan Wood Preservation Association, Coriolus versicolor/Japanese beech (Test Example 3); settings: oil formulation, Japanese beech, 30 weather resistance cycles, 8 weeks
Protocol: (§1) An oil formulation of each of the test compounds shown in Table 5 was prepared according to Formulation Example 1 and was tested based on the test method of Japan Wood Preservation Association. The summary of the test method is as follows:
(§2) The cut end surfaces of a wooden piece of Japanese beech or Japanese cedar (thickness: 5 mm, width: 20 mm, length: 40 mm; the surface of 40×20 mm is of straight grain) were sealed with an epoxy resin and the wooden piece was impregnated with the oil formulation (110±10 g/m^2 surface area), and thereafter air-dried for 20 days to prepare a test specimen. The test specimen was dipped in still water [water:wooden piece=10:1 (volume ratio)] at 25°±3° C. for 5 hours, and then the water was volatilized at 40±2° C. for 19 hours. This weather resistance operation was repeated 30 times. The test specimen after the weather resistance operation was dried at 60°±2° C. for 48 hours and then placed in a desicator for about 30 minutes, after which the weight (W3) of the test specimen was measured. The test described above was repeated for 9 wooden pieces. The test specimen was sterilized and then, placed in a culture vial in which wood rotting fungi (Coriolus versicolor/Japanese beech, Tyromyces palustris/Japanese cedar) were being cultured, in which cultivation was effected at 26°±2° C. at a humidity of 80% for 8 weeks. After 8 weeks, the test specimen was taken out of the culture vial and the mycelium and other extraneous matters were removed therefrom, after which the test specimen was dried at 60°±2° C. for 48 hours and placed in a desicator for about 30 minutes. Thereafter, the weight (W4) of the test specimen was measured. The weight reduction percentage was calculated according to the following equation: [formula]

[3] = tested on: Tyromyces palustris; assay: Wood weight reduction after weather resistance operation, test method of Japan Wood Preservation Association, Tyromyces palustris/Japanese cedar (Test Example 3); settings: oil formulation, Japanese cedar, 30 weather resistance cycles, 8 weeks
Protocol: as §1, §2

[4] = tested on: Coriolus versicolor; assay: Mycelium growth inhibition on potato dextrose agar medium, Coriolus versicolor (Test Example 2); format: cell-based; settings: four days after inoculation
Protocol: (§3) Each of the test compounds shown in Tables 3 and 4 was dissolved in a definite amount of dimethylsulfoxide to prepare a 1% W/V solution. A definite amount of the resulting formulation was added to a potato dextrose agar medium just after sterilization (using a moist heat sterilizer) and about 20 cc of the mixture was poured into a Petri dish of 9 cm in diameter and the Petri dish was placed at room temperature. After the medium was solidified, mycelium from a colony of Coriolus versicolor or Tyromyces palustris cultured previously was punched with a cork borer of 5 mm in diameter and the mycelium was inoculated at the center of the test medium. Four days after the inoculation, the diameter of colony extended from the inoculation point was measured and the percentage of mycelium growth inhibition was calculated according to the following equation: [formula]

[5] = tested on: Tyromyces palustris; assay: Mycelium growth inhibition on potato dextrose agar medium, Tyromyces palustris (Test Example 2); format: cell-based; settings: four days after inoculation
Protocol: as §3

| Compound | Degree of discoloration (coloration) [1] | Average weight reduction percentage ([2]; concentration 1.0%) | Average weight reduction percentage ([3]; concentration 1.0%) | Percentage of growth inhibition for Coriolus versicolor ([4]; 1 ppm) | Percentage of growth inhibition for Coriolus versicolor ([4]; 2 ppm) | Percentage of growth inhibition for Coriolus versicolor ([4]; 4 ppm) | Percentage of growth inhibition for Tyromyces palustris ([5]; 1 ppm) | Percentage of growth inhibition for Tyromyces palustris ([5]; 2 ppm) | Percentage of growth inhibition for Tyromyces palustris ([5]; 4 ppm) | Average weight reduction percentage ([2]; concentration 0.5%) | Average weight reduction percentage ([3]; concentration 0.5%) |
| --- | --- | --- | --- | --- | --- | --- | --- | --- | --- | --- | --- |
| 3-Iodo-2-propenylbutyl carbamate [Compound (B)] | + | 7.6% | 0.78% | 81.3 Percentage | 91.9 Percentage | 100 Percentage | 80.5 Percentage | 88.7 Percentage | 100 Percentage |  |  |
| CC(C)(C)C(O)/C(=C\c1ccc(Cl)cc1Cl)n1cncn1 (single isomer, unassigned; (-)) [Compound (1), (-)-(E)-1-(2,4-dichlorophenyl)-4,4-dimethyl-2-(1,2,4-triazol-1-yl)-1-penten-3-ol] | - | 0.64% | 0.19% | 86.1 Percentage | 93.9 Percentage | 98.3 Percentage | 79.1 Percentage | 93.0 Percentage | 95.6 Percentage | 0.70% | 0.25% |
| CC(C)(C)C(O)/C(=C\c1ccc(Cl)cc1)n1cncn1 (single isomer, unassigned; (-)) [Compound (2), (-)-(E)-1-(4-chlorophenyl)-4,4-dimethyl-2-(1,2,4-triazol-1-yl)-1-penten-3-ol] | - |  |  | 85.3 Percentage | 87.2 Percentage | 93.9 Percentage | 94.6 Percentage | 98.8 Percentage | 100 Percentage |  |  |
| CCOC(=O)OCC(I)=C(Br)I [Compound (A), 3-Bromo-2,3-diiodo-2-propenylethyl carbonate] |  | 3.9% | 3.1% | 20.0 Percentage | 41.7 Percentage | 72.8 Percentage | 26.6 Percentage | 43.0 Percentage | 63.3 Percentage |  |  |
| Clc1ccc(OCOCC#CI)cc1 [Compound (C), 4-Chlorophenyl-3-iodopropargyl formal] | ++ | 1.1% | 0.34% | 68.2 Percentage | 88.7 Percentage | 97.9 Percentage | 77.0 Percentage | 98.6 Percentage | 100 Percentage |  |  |
